Earlier results, collected in patent publication US6969706B1, “Preserved pharmaceutical compositions comprising cyclodextrins” (Allergan, Inc., priority 2004, dated 2005).

Tested on: a number of pathogens
Conditions: HPβCD solutions; reported by Loftsson et al. 1992

| Compound | preservative activity in the presence of 2-hydroxypropyl-β-cyclodextrin |
| --- | --- |
| N=C(NCCCCCCNC(=N)NC(=N)Nc1ccc(Cl)cc1)NC(=N)Nc1ccc(Cl)cc1.O=C(O)[C@H](O)[C@@H](O)[C@H](O)[C@H](O)CO.O=C(O)[C@H](O)[C@@H](O)[C@H](O)[C@H](O)CO [chlorhexidine gluconate] | did possess preservative activity |
| benzalkonium chloride | did possess preservative activity |
| CCCOC(=O)c1ccc(O)cc1 [propylparaben] | significantly reduced preservative activity |
| COC(=O)c1ccc(O)cc1 [methylparaben] | significantly reduced preservative activity |
